Publication PMC5218480 (PLoS ONE, 2017)

Tested on: MV-4-11 cells
Assay: Gene expression microarray analysis (Affymetrix PrimeView) and GSEA
Type: cell-based, human
Design: RFU PODN (11730768_x_at) / Fold change /veh PODN (11730768_x_at) / RFU LINC00158 (11744669_a_at) / Fold change /veh LINC00158 (11744669_a_at) / RFU DUSP10 (11751237_a_at) / Fold change /veh DUSP10 (11751237_a_at) / RFU ID3 (11757404_x_at) / Fold change /veh ID3 (11757404_x_at) / RFU PLEKHG5 (11737974_s_at) / Fold change /veh PLEKHG5 (11737974_s_at) / RFU LRRC4B (11730491_at) / Fold change /veh LRRC4B (11730491_at) / RFU GIMAP4 (11747438_a_at) / Fold change /veh GIMAP4 (11747438_a_at) / RFU KRT8 (11758183_x_at) / Fold change /veh KRT8 (11758183_x_at) / RFU CNN1 (11734310_a_at) / Fold change /veh CNN1 (11734310_a_at) / RFU VPS37D (11726825_at) / Fold change /veh VPS37D (11726825_at) / RFU C10orf10 (11716522_x_at) / Fold change /veh C10orf10 (11716522_x_at) / RFU KIR2DL2 /// KIR2DL4 /// KIR2DL5A /// KIR2DL5B /// KIR2DS1 /// KIR2DS2 /// KIR2DS3 /// KIR2DS4 /// KIR3DL3 /// KIR3DL3 /// KIR3DS1 (11738374_at) / Fold change /veh KIR2DL2 /// KIR2DL4 /// KIR2DL5A /// KIR2DL5B /// KIR2DS1 /// KIR2DS2 /// KIR2DS3 /// KIR2DS4 /// KIR3DL3 /// KIR3DL3 /// KIR3DS1 (11738374_at) / RFU C1QL1 (11718748_at) / Fold change /veh C1QL1 (11718748_at) / RFU TMPRSS4 (11747572_a_at) / Fold change /veh TMPRSS4 (11747572_a_at) / RFU HAMP (11756126_x_at) / Fold change /veh HAMP (11756126_x_at) / RFU RNFT2 (11725882_a_at) / Fold change /veh RNFT2 (11725882_a_at) / RFU NR4A2 (11747474_a_at) / Fold change /veh NR4A2 (11747474_a_at) / RFU ABCC12 (11746883_a_at) / Fold change /veh ABCC12 (11746883_a_at) / RFU TMEM136 (11760407_x_at) / Fold change /veh TMEM136 (11760407_x_at) / RFU CLDN22 /// WWC2 (11732394_at) / Fold change /veh CLDN22 /// WWC2 (11732394_at) / RFU HLA-DPB1 (11760878_x_at) / Fold change /veh HLA-DPB1 (11760878_x_at) / RFU SPINT1 (11716480_a_at) / Fold change /veh SPINT1 (11716480_a_at) / RFU GAP43 (11754022_s_at) / Fold change /veh GAP43 (11754022_s_at) / RFU A4GNT (11735810_at) / Fold change /veh A4GNT (11735810_at) / RFU PRB3 (11715151_x_at) / Fold change /veh PRB3 (11715151_x_at) / RFU TUBB4B (11761932_at) / Fold change /veh TUBB4B (11761932_at) / RFU CAPN14 (11732068_a_at) / Fold change /veh CAPN14 (11732068_a_at) / RFU TMCC2 (11721928_a_at) / Fold change /veh TMCC2 (11721928_a_at) / RFU IRGQ (11745062_a_at) / Fold change /veh IRGQ (11745062_a_at) / RFU FAM174B (11720279_a_at) / Fold change /veh FAM174B (11720279_a_at) / RFU TMPRSS4 (11748680_a_at) / Fold change /veh TMPRSS4 (11748680_a_at) / RFU FAM212B (11763350_a_at) / Fold change /veh FAM212B (11763350_a_at) / RFU PLEKHG5 (11743358_a_at) / Fold change /veh PLEKHG5 (11743358_a_at) / RFU ZSCAN30 (11745921_a_at) / Fold change /veh ZSCAN30 (11745921_a_at) / RFU CMKLR1 (11741424_a_at) / Fold change /veh CMKLR1 (11741424_a_at) / RFU LOC101060620 /// MAPK8IP1 (11723275_at) / Fold change /veh LOC101060620 /// MAPK8IP1 (11723275_at) / RFU SPTSSB (11747773_x_at) / Fold change /veh SPTSSB (11747773_x_at) / RFU PRSS12 (11739890_at) / Fold change /veh PRSS12 (11739890_at) / RFU BIN1 (11741810_x_at) / Fold change /veh BIN1 (11741810_x_at) / RFU WNT11 (11732464_a_at) / Fold change /veh WNT11 (11732464_a_at) / RFU C10orf10 (11716521_a_at) / Fold change /veh C10orf10 (11716521_a_at) / RFU C5orf56 (11738089_at) / Fold change /veh C5orf56 (11738089_at) / RFU CYB561 (11721691_x_at) / Fold change /veh CYB561 (11721691_x_at) / RFU ANKRD19P (11752326_a_at) / Fold change /veh ANKRD19P (11752326_a_at) / RFU OR2T12 /// OR2T33 /// OR2T8 (11738714_s_at) / Fold change /veh OR2T12 /// OR2T33 /// OR2T8 (11738714_s_at) / RFU VCAN (11748164_a_at) / Fold change /veh VCAN (11748164_a_at) / RFU JSRP1 (11732532_at) / Fold change /veh JSRP1 (11732532_at) / RFU KRTAP10-11 (11738290_x_at) / Fold change /veh KRTAP10-11 (11738290_x_at) / RFU MYO3A (11730013_a_at) / Fold change /veh MYO3A (11730013_a_at) / RFU EBF3 (11725865_a_at) / Fold change /veh EBF3 (11725865_a_at) / RFU CAMK2N1 (11719241_x_at) / Fold change /veh CAMK2N1 (11719241_x_at) / RFU C5orf56 (11738088_a_at) / Fold change /veh C5orf56 (11738088_a_at) / RFU OLFML3 (11715873_a_at) / Fold change /veh OLFML3 (11715873_a_at) / RFU LOC100653217 /// NTM (11731650_a_at) / Fold change /veh LOC100653217 /// NTM (11731650_a_at) / RFU MAPK11 (11762145_a_at) / Fold change /veh MAPK11 (11762145_a_at) / RFU FIZ1 (11724087_x_at) / Fold change /veh FIZ1 (11724087_x_at) / RFU OASL (11726364_x_at) / Fold change /veh OASL (11726364_x_at) / RFU SOX15 (11748057_x_at) / Fold change /veh SOX15 (11748057_x_at) / RFU CD79A (11719716_a_at) / Fold change /veh CD79A (11719716_a_at) / RFU HIST1H1D (11736915_at) / Fold change /veh HIST1H1D (11736915_at) / RFU CASKIN2 (11723855_a_at) / Fold change /veh CASKIN2 (11723855_a_at) / RFU LOC730098 (11760151_x_at) / Fold change /veh LOC730098 (11760151_x_at) / RFU OR4N2 (11742367_at) / Fold change /veh OR4N2 (11742367_at) / RFU PRRT2 (11749266_a_at) / Fold change /veh PRRT2 (11749266_a_at) / RFU SNX32 (11753110_a_at) / Fold change /veh SNX32 (11753110_a_at) / RFU CDHR5 (11726645_a_at) / Fold change /veh CDHR5 (11726645_a_at) / RFU RCAN1 (11760418_a_at) / Fold change /veh RCAN1 (11760418_a_at) / RFU FAM167A (11723789_a_at) / Fold change /veh FAM167A (11723789_a_at) / RFU FAM26E (11764081_at) / Fold change /veh FAM26E (11764081_at) / RFU ISYNA1 (11749810_s_at) / Fold change /veh ISYNA1 (11749810_s_at) / RFU ACY1 (11761880_at) / Fold change /veh ACY1 (11761880_at) / RFU 11764098_at / Fold change /veh 11764098_at / RFU SAMD14 (11745864_x_at) / Fold change /veh SAMD14 (11745864_x_at) / RFU NPB (11741838_a_at) / Fold change /veh NPB (11741838_a_at) / RFU TMPRSS6 (11731388_a_at) / Fold change /veh TMPRSS6 (11731388_a_at) / RFU KRTAP10-2 (11738614_at) / Fold change /veh KRTAP10-2 (11738614_at) / RFU ARHGAP8 /// PRR5-ARHGAP8 (11727945_x_at) / Fold change /veh ARHGAP8 /// PRR5-ARHGAP8 (11727945_x_at) / RFU KRTAP5-7 /// NADSYN1 (11734609_at) / Fold change /veh KRTAP5-7 /// NADSYN1 (11734609_at) / RFU RASL12 (11751679_a_at) / Fold change /veh RASL12 (11751679_a_at) / RFU CDKN2B (11736163_a_at) / Fold change /veh CDKN2B (11736163_a_at) / RFU PRF1 (11729649_at) / Fold change /veh PRF1 (11729649_at) / RFU, ZNF638 /// ZNF638-IT1 / Fold change vs veh, ZNF638 /// ZNF638-IT1 / RFU, PANK3 / Fold change vs veh, PANK3 / RFU, SH3YL1 / Fold change vs veh, SH3YL1 / RFU, ZEB2 / Fold change vs veh, ZEB2 / RFU, NRIP1 / Fold change vs veh, NRIP1 / RFU, PTTG1IP / Fold change vs veh, PTTG1IP / RFU, CAPN2 / Fold change vs veh, CAPN2 / RFU, MED14 / Fold change vs veh, MED14 / RFU, SNORA58 / Fold change vs veh, SNORA58 / RFU, C1orf63 / Fold change vs veh, C1orf63 / RFU, LRRFIP1 / Fold change vs veh, LRRFIP1 / RFU, NDUFAF7 / Fold change vs veh, NDUFAF7 / RFU, SLC12A2 / Fold change vs veh, SLC12A2 / RFU, IBTK / Fold change vs veh, IBTK / RFU, ESF1 / Fold change vs veh, ESF1 / Fold change vs veh, TMEM50B / RFU, TAOK1 / Fold change vs veh, TAOK1 / RFU, ACBD3 / Fold change vs veh, ACBD3 / RFU, TMA16 / Fold change vs veh, TMA16 / RFU, RWDD3 / Fold change vs veh, RWDD3 / RFU, BCAT1 / Fold change vs veh, BCAT1 / RFU, EDEM3 / Fold change vs veh, EDEM3 / RFU, TMEM33 / Fold change vs veh, TMEM33 / RFU, WDR75 / Fold change vs veh, WDR75 / RFU, AHCTF1 / Fold change vs veh, AHCTF1 / RFU, TFRC / Fold change vs veh, TFRC / RFU, ZDHHC17 / Fold change vs veh, ZDHHC17 / RFU, NOM1 / Fold change vs veh, NOM1 / RFU, ARL8B / Fold change vs veh, ARL8B / RFU, ZBTB11 / Fold change vs veh, ZBTB11 / RFU, TAMM41 / Fold change vs veh, TAMM41 / RFU, KIAA1704 /// LOC100996395 / Fold change vs veh, KIAA1704 /// LOC100996395 / RFU, ING1 / Fold change vs veh, ING1 / RFU, TRMT61B / Fold change vs veh, TRMT61B / RFU, FUBP3 / Fold change vs veh, FUBP3 / RFU, TP53 / Fold change vs veh, TP53 / RFU, TNKS2 / Fold change vs veh, TNKS2 / RFU, ZFP14 / Fold change vs veh, ZFP14 / RFU, ACTR2 / Fold change vs veh, ACTR2 / RFU, PPP3R1 / Fold change vs veh, PPP3R1 / RFU, PIK3R1 / Fold change vs veh, PIK3R1 / RFU, HNRNPA1 / Fold change vs veh, HNRNPA1 / RFU, RNF170 / Fold change vs veh, RNF170 / RFU, ZNF28 / Fold change vs veh, ZNF28 / RFU, RNGTT / Fold change vs veh, RNGTT / RFU, OGT / Fold change vs veh, OGT / RFU, BRD1 / Fold change vs veh, BRD1 / RFU, MARS / Fold change vs veh, MARS / RFU, ZNF655 / Fold change vs veh, ZNF655 / RFU, FAHD1 / Fold change vs veh, FAHD1 / RFU, BDP1 / Fold change vs veh, BDP1 / RFU, LRRCC1 / Fold change vs veh, LRRCC1 / RFU, ARID1A / Fold change vs veh, ARID1A / RFU, ZNF146 / Fold change vs veh, ZNF146 / RFU, ZNF330 / Fold change vs veh, ZNF330 / RFU, GPN3 / Fold change vs veh, GPN3 / RFU, C9orf123 / Fold change vs veh, C9orf123 / RFU, N4BP2L2 / Fold change vs veh, N4BP2L2 / RFU, ARFIP1 / Fold change vs veh, ARFIP1 / RFU, FAM179B / Fold change vs veh, FAM179B / RFU, BCL10 / Fold change vs veh, BCL10 / RFU, UHRF1BP1L / Fold change vs veh, UHRF1BP1L / RFU, BET1 / Fold change vs veh, BET1 / RFU, CNOT2 / Fold change vs veh, CNOT2 / RFU, ZNF268 / Fold change vs veh, ZNF268 / Fold change vs veh, ZNF507 / RFU, DGCR2 / Fold change vs veh, DGCR2 / RFU, WDSUB1 / Fold change vs veh, WDSUB1 / Fold change vs veh, HSP90B1 /// MIR3652 / RFU, ADSS / Fold change vs veh, ADSS / RFU, GK / Fold change vs veh, GK / RFU, ZNF148 / Fold change vs veh, ZNF148 / RFU, TAF9 / Fold change vs veh, TAF9 / RFU, SLC1A5 / Fold change vs veh, SLC1A5 / RFU, SLMO2 / Fold change vs veh, SLMO2 / RFU, ABCC4 / Fold change vs veh, ABCC4 / RFU, LOC101060439 /// RAP1B / Fold change vs veh, LOC101060439 /// RAP1B / RFU, RFX7 / Fold change vs veh, RFX7 / RFU, GTPBP10 / Fold change vs veh, GTPBP10 / RFU, CNEP1R1 / Fold change vs veh, CNEP1R1 / RFU, BIVM-ERCC5 /// ERCC5 / Fold change vs veh, BIVM-ERCC5 /// ERCC5 / RFU, ILF3 / Fold change vs veh, ILF3 / RFU 11762660_at / Fold change /veh 11762660_at / RFU VCAN (11757783_s_at) / Fold change /veh VCAN (11757783_s_at) / RFU DDX43 (11728927_at) / Fold change /veh DDX43 (11728927_at) / RFU KRT8 (11758188_x_at) / Fold change /veh KRT8 (11758188_x_at) / RFU NKD1 (11759106_at) / Fold change /veh NKD1 (11759106_at) / RFU SRD5A1 (11742802_a_at) / Fold change /veh SRD5A1 (11742802_a_at) / RFU TPSAB1 /// TPSB2 (11721975_s_at) / Fold change /veh TPSAB1 /// TPSB2 (11721975_s_at) / RFU GSTM3 (11746129_a_at) / Fold change /veh GSTM3 (11746129_a_at) / RFU IL23R (11737362_x_at) / Fold change /veh IL23R (11737362_x_at) / RFU TMEM51 (11727254_a_at) / Fold change /veh TMEM51 (11727254_a_at) / RFU PIWIL2 (11732686_x_at) / Fold change /veh PIWIL2 (11732686_x_at) / RFU ORM1 (11744905_x_at) / Fold change /veh ORM1 (11744905_x_at) / RFU CCDC152 (11743942_at) / Fold change /veh CCDC152 (11743942_at) / RFU ECM1 (11717891_a_at) / Fold change /veh ECM1 (11717891_a_at) / RFU IL23R (11748794_a_at) / Fold change /veh IL23R (11748794_a_at) / RFU TNFAIP8L3 (11732012_x_at) / Fold change /veh TNFAIP8L3 (11732012_x_at) / RFU MBOAT4 (11741988_at) / Fold change /veh MBOAT4 (11741988_at) / RFU 11764193_at / Fold change /veh 11764193_at / RFU TMEM53 (11763286_at) / Fold change /veh TMEM53 (11763286_at) / RFU MAGEB2 (11727129_at) / Fold change /veh MAGEB2 (11727129_at) / RFU TMEM200A (11744735_a_at) / Fold change /veh TMEM200A (11744735_a_at) / RFU CCDC152 (11751479_a_at) / Fold change /veh CCDC152 (11751479_a_at) / RFU FAM211A (11726209_a_at) / Fold change /veh FAM211A (11726209_a_at) / RFU RGS16 (11746705_a_at) / Fold change /veh RGS16 (11746705_a_at) / RFU VCAN (11755009_s_at) / Fold change /veh VCAN (11755009_s_at) / RFU RHOB (11743442_s_at) / Fold change /veh RHOB (11743442_s_at) / RFU RGS16 (11720943_a_at) / Fold change /veh RGS16 (11720943_a_at) / RFU RGS16 (11720944_at) / Fold change /veh RGS16 (11720944_at) / RFU, VPS4B / Fold change vs veh, VPS4B / RFU, CREB1 / Fold change vs veh, CREB1 / RFU, DNAJC13 / Fold change vs veh, DNAJC13 / RFU, GNAQ / Fold change vs veh, GNAQ / RFU, CDK5R1 / Fold change vs veh, CDK5R1 / RFU, ZRANB3 / Fold change vs veh, ZRANB3 / RFU, CUL4A / Fold change vs veh, CUL4A / RFU, CCNY / Fold change vs veh, CCNY / RFU, UFL1 / Fold change vs veh, UFL1 / RFU, COG3 / Fold change vs veh, COG3 / RFU, DIAPH2 / Fold change vs veh, DIAPH2 / RFU, SKA2 / Fold change vs veh, SKA2 / RFU, AFF3 / Fold change vs veh, AFF3 / RFU, LMF1 / Fold change vs veh, LMF1 / RFU, IPO11 / Fold change vs veh, IPO11 / RFU, DFFB / Fold change vs veh, DFFB / RFU, FOXP1 / Fold change vs veh, FOXP1 / RFU, CARD8 / Fold change vs veh, CARD8 / RFU, STRN3 / Fold change vs veh, STRN3 / RFU, ADK / Fold change vs veh, ADK / RFU, RASSF2 / Fold change vs veh, RASSF2 / RFU, WIPF1 / Fold change vs veh, WIPF1 / RFU, LARP1B / Fold change vs veh, LARP1B / RFU, RASA1 / Fold change vs veh, RASA1 / RFU, RB1 / Fold change vs veh, RB1 / RFU, PPFIA1 / Fold change vs veh, PPFIA1 / RFU, MAT2A / Fold change vs veh, MAT2A / RFU, CCT5 / Fold change vs veh, CCT5 / RFU, WDR92 / Fold change vs veh, WDR92 / RFU, CUX1 / Fold change vs veh, CUX1 / RFU, TTC7A / Fold change vs veh, TTC7A / RFU, TMEM135 / Fold change vs veh, TMEM135 / RFU, DEPTOR / Fold change vs veh, DEPTOR / RFU, CPM / Fold change vs veh, CPM / RFU, DNAJB6 / Fold change vs veh, DNAJB6 / RFU, CACNA2D3 / Fold change vs veh, CACNA2D3 / RFU, DTX4 / Fold change vs veh, DTX4 / RFU, TFCP2 / Fold change vs veh, TFCP2 / RFU, GMCL1 /// GMCL1P1 / Fold change vs veh, GMCL1 /// GMCL1P1 / RFU, AEBP2 / Fold change vs veh, AEBP2 / RFU, SNHG1 /// SNORD22 /// SNORD25 /// SNORD26 /// SNORD27 /// SNORD28 /// SNORD29 /// SNORD31 / Fold change vs veh, SNHG1 /// SNORD22 /// SNORD25 /// SNORD26 /// SNORD27 /// SNORD28 /// SNORD29 /// SNORD31 / Fold change (Aza/veh), C12orf56 (ProbeSet 11735607_a_at) / Fold change (ACY-1035/veh), C12orf56 (ProbeSet 11735607_a_at) / Fold change (Aza/veh), FGFR1OP (ProbeSet 11751329_s_at) / Fold change (ACY-1035/veh), FGFR1OP (ProbeSet 11751329_s_at) / Fold change (Aza/veh), VPS36 (ProbeSet 11739960_a_at) / Fold change (ACY-1035/veh), VPS36 (ProbeSet 11739960_a_at) / RFU SYPL1 (11715823_x_at) / Fold change /veh SYPL1 (11715823_x_at) / RFU IGFBP7 (11715501_s_at) / Fold change /veh IGFBP7 (11715501_s_at) / RFU REEP3 (11722064_at) / Fold change /veh REEP3 (11722064_at) / RFU IGLL1 (11728026_x_at) / Fold change /veh IGLL1 (11728026_x_at): dose or concentration left out as unconfirmed
Conditions: MV-4-11 cells, 48 hours

Nc1ncn([C@@H]2O[C@H](CO)[C@@H](O)[C@H]2O)c(=O)n1 [azacitidine]
RFU ECM1 (11717891_a_at): 24.53 RFU
